# Data from ChEMBL document CHEMBL4270577, “Synthesis, anticancer activity and molecular modeling studies of 1,2,4-triazole derivatives as EGFR inhibitors” (Eur J Med Chem, 2018).
# How the values were obtained:
# [1] = tested on: PANC-1; test: Antiproliferative activity against human PANC1 cells after 48 hrs by propidium iodide staining-based fluorometric analysis; format: functional, cell-based; conditions: PANC-1, 48 h
# [2] = tested on: EKVX; test: Growth inhibition of human EKVX cells at 10 uM incubated for 48 hrs by sulforhodamine B assay relative to control; format: functional; conditions: read-out: GI
# [3] = tested on: SK-MEL-28; test: Growth inhibition of human SK-MEL-28 cells at 10 uM incubated for 48 hrs by sulforhodamine B assay relative to control; format: functional; conditions: SK-MEL-28, 48 h, read-out: GI
# [4] = tested on: KM12; test: Growth inhibition of human KM12 cells at 10 uM incubated for 48 hrs by sulforhodamine B assay relative to control; format: functional; conditions: KM12, 48 h, read-out: GI
# [5] = tested on: BT-549; test: Growth inhibition of human BT549 cells at 10 uM incubated for 48 hrs by sulforhodamine B assay relative to control; format: functional; conditions: BT-549, 48 h, read-out: GI
# [6] = tested on: HL-60(TB); test: Growth inhibition of human HL-60(TB) cells at 10 uM incubated for 48 hrs by sulforhodamine B assay relative to control; format: functional; conditions: HL-60, 48 h, read-out: GI
# [7] = tested on: DU-145; test: Growth inhibition of human DU145 cells at 10 uM incubated for 48 hrs by sulforhodamine B assay relative to control; format: functional; conditions: DU-145, 48 h, read-out: GI
# [8] = tested on: OVCAR-3; test: Growth inhibition of human OVCAR3 cells at 10 uM incubated for 48 hrs by sulforhodamine B assay relative to control; format: functional; conditions: OVCAR-3, 48 h, read-out: GI
# [9] = tested on: MOLT-4; test: Growth inhibition of human MOLT4 cells at 10 uM incubated for 48 hrs by sulforhodamine B assay relative to control; format: functional; conditions: MOLT-4, 48 h, read-out: GI
# [10] = tested on: HT-29; test: Growth inhibition of human HT-29 cells at 10 uM incubated for 48 hrs by sulforhodamine B assay relative to control; format: functional; conditions: HT-29, 48 h, read-out: GI
# [11] = tested on: CCRF-CEM; test: Growth inhibition of human CCRF-CEM cells at 10 uM incubated for 48 hrs by sulforhodamine B assay relative to control; format: functional; conditions: read-out: GI
# [12] = target: Epidermal growth factor receptor (Homo sapiens, UniProt P00533); test: Inhibition of His6-tagged recombinant EGFR cytoplasmic domain (645 to 1186 residues) (unknown origin) expressed in baculovirus infected Sf9 insect cells preincubated for 10 mins followed by ATP-MgCl2 addition and measured after 1 hr by DELFIA/time-resolved fluorometric analysis
# Sequence of Epidermal growth factor receptor (P00533 whole entry, the tested form may be a part): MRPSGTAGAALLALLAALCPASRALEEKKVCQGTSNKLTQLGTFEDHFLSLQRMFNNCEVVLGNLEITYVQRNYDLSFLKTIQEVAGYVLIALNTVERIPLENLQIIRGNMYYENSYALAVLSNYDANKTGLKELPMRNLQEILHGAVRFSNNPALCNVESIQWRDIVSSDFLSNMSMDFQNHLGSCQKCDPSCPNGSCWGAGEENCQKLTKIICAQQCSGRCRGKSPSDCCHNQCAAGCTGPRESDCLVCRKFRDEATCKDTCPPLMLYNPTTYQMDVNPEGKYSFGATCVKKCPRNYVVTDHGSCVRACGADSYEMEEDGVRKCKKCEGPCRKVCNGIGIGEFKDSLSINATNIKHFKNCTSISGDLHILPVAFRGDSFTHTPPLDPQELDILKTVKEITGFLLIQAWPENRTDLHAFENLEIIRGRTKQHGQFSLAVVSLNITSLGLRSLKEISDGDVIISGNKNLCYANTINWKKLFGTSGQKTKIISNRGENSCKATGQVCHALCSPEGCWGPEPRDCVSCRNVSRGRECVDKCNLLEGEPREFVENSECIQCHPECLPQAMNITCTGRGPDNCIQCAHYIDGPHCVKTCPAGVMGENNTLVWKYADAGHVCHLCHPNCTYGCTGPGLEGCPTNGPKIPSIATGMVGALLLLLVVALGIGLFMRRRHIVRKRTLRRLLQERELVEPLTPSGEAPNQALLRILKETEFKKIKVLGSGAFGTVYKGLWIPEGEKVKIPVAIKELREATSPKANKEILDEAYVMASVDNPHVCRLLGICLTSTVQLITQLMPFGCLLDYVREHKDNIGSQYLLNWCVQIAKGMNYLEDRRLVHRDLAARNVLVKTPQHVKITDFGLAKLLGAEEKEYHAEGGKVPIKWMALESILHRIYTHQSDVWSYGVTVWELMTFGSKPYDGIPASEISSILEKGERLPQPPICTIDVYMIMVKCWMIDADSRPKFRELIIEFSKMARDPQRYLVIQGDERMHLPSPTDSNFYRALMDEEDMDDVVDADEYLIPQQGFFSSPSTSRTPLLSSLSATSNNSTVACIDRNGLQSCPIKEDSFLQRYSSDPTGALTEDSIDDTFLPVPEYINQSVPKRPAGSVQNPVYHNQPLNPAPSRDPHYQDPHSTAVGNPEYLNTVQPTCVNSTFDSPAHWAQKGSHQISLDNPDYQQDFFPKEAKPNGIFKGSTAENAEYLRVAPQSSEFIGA
# [13] = tested on: SR; test: Growth inhibition of human SR cells at 10 uM incubated for 48 hrs by sulforhodamine B assay relative to control; format: functional; conditions: read-out: GI
# [14] = tested on: RXF 393; test: Growth inhibition of human RXF393 cells at 10 uM incubated for 48 hrs by sulforhodamine B assay relative to control; format: functional; conditions: RXF 393, 48 h, read-out: GI
# [15] = tested on: SN12C; test: Growth inhibition of human SN12C cells at 10 uM incubated for 48 hrs by sulforhodamine B assay relative to control; format: functional; conditions: read-out: GI
# [16] = tested on: A549; test: Growth inhibition of human A549/ATCC cells at 10 uM incubated for 48 hrs by sulforhodamine B assay relative to control; format: functional; conditions: A549, 48 h, read-out: GI
# [17] = tested on: MDA-MB-468; test: Growth inhibition of human MDA-MB-468 cells at 10 uM incubated for 48 hrs by sulforhodamine B assay relative to control; format: functional; conditions: MDA-MB-468, 48 h, read-out: GI
# [18] = tested on: NCI-H460; test: Antiproliferative activity against human H460 cells after 48 hrs by propidium iodide staining-based fluorometric analysis; format: functional, cell-based; conditions: NCI-H460, 48 h
# [19] = tested on: ACHN; test: Growth inhibition of human ACHN cells at 10 uM incubated for 48 hrs by sulforhodamine B assay relative to control; format: functional; conditions: read-out: GI
# [20] = tested on: PC-3; test: Growth inhibition of human PC3 cells at 10 uM incubated for 48 hrs by sulforhodamine B assay relative to control; format: functional; conditions: PC-3, 48 h, read-out: GI
# [21] = tested on: UACC-62; test: Growth inhibition of human UACC62 cells at 10 uM incubated for 48 hrs by sulforhodamine B assay relative to control; format: functional; conditions: UACC-62, 48 h, read-out: GI
# [22] = tested on: T47D; test: Growth inhibition of human T47D cells at 10 uM incubated for 48 hrs by sulforhodamine B assay relative to control; format: functional; conditions: read-out: GI
# [23] = tested on: SF-295; test: Growth inhibition of human SF295 cells at 10 uM incubated for 48 hrs by sulforhodamine B assay relative to control; format: functional; conditions: SF-295, 48 h, read-out: GI
# [24] = tested on: MDA-MB-231; test: Growth inhibition of human MDA-MB-231/ATCC cells at 10 uM incubated for 48 hrs by sulforhodamine B assay relative to control; format: functional; conditions: MDA-MB-231, 48 h, read-out: GI
# [25] = tested on: SK-MEL-5; test: Growth inhibition of human SK-MEL-5 cells at 10 uM incubated for 48 hrs by sulforhodamine B assay relative to control; format: functional; conditions: SK-MEL-5, 48 h, read-out: GI
# [26] = tested on: SNB-19; test: Growth inhibition of human SNB19 cells at 10 uM incubated for 48 hrs by sulforhodamine B assay relative to control; format: functional; conditions: SNB-19, 48 h, read-out: GI
Compound,IC50 [1],inhibition of growth at 10 µM [2],inhibition of growth at 10 µM [4],inhibition of growth at 10 µM [6],inhibition of growth at 10 µM [7],inhibition of growth at 10 µM [9],inhibition of growth at 10 µM [10],inhibition of growth at 10 µM [11],IC50 [12],inhibition of growth at 10 µM [14],inhibition of growth at 10 µM [15],inhibition of growth at 10 µM [16],inhibition of growth at 10 µM [17],IC50 [18],inhibition of growth at 10 µM [19],inhibition of growth at 10 µM [20],inhibition of growth at 10 µM [21],inhibition of growth at 10 µM [22],inhibition of growth at 10 µM [23],inhibition of growth at 10 µM [24],further results
COc1ccc(-c2nc3sc(-c4ccccc4)cn3n2)cc1,4.5 µM,37%,70%,32%,16%,49%,70%,35%,5.6 µM,24%,37%,49%,81%,6.9 µM,32%,33%,42%,65%,38%,53%,inhibition of growth at 10 µM [3]: 32%; inhibition of growth at 10 µM [5]: 26%; inhibition of growth at 10 µM [8]: 41%; inhibition of growth at 10 µM [13]: 58%; inhibition of growth at 10 µM [25]: 65%; inhibition of growth at 10 µM [26]: 34%
COc1cc(-c2nc3sc(-c4ccccc4)cn3n2)cc(OC)c1OC,4.9 µM,63%,14%,37%,9%,44%,18%,49%,2.8 µM,17%,19%,23%,35%,4.8 µM,15%,53%,31%,55%,16%,41%,inhibition of growth at 10 µM [3]: 4%; inhibition of growth at 10 µM [5]: 18%; inhibition of growth at 10 µM [13]: 65%; inhibition of growth at 10 µM [25]: 41%; inhibition of growth at 10 µM [26]: 10%
Clc1ccc(-c2cn3nc(-c4ccccc4)nc3s2)cc1,5.2 µM,28%,30%,15%,14%,8%,26%,6%,7.2 µM,39%,22%,36%,57%,5.1 µM,49%,31%,18%,74%,21%,57%,inhibition of growth at 10 µM [8]: 24%; inhibition of growth at 10 µM [25]: 21%; inhibition of growth at 10 µM [26]: 57%
